Laboratory results as given in the supplement of paper PMC10307832.

Legend:
Assay in all cases: relative viability (nuclei count vs DMSO), 5 days (fraction); higher = more cells survive
[1] = compound: COC1=CC=C(C=C1)CN2C=CC3=C2C=C(C=C3)C(=O)NO + CS(=O)(=O)CCNCc1ccc(-c2ccc3ncnc(Nc4ccc(OCc5cccc(F)c5)c(Cl)c4)c3c2)o1 [Lapatinib] (partner 2 µM)
Procedure, shortened: (§1)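 Medians of duplicate plates are given as relative viability. That measure is the nuclei count in treated wells divided by the count in vehicle wells. Counts were taken on 4× images of lung cancer cell lines in 1536-well plates, 5 days after pin-tool dosing the day after seeding with one drug alone or a fixed anchor-drug dose plus five library-drug doses (not always all listed) in √10 steps.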

Veliparib + Alpelisib = compound: C[C@]1(c2nc3c(C(N)=O)cccc3[nH]2)CCCN1 [Veliparib] + Cc1nc(NC(=O)N2CCC[C@H]2C(N)=O)sc1-c1ccnc(C(C)(C)C(F)(F)F)c1 [Alpelisib] (partner 2 µM)
Procedure, shortened: as §1

Veliparib + Lapatinib = compound: C[C@]1(c2nc3c(C(N)=O)cccc3[nH]2)CCCN1 [Veliparib] + CS(=O)(=O)CCNCc1ccc(-c2ccc3ncnc(Nc4ccc(OCc5cccc(F)c5)c(Cl)c4)c3c2)o1 [Lapatinib] (partner 2 µM)
Procedure, shortened: as §1

[2] = compound: COC1=CC=C(C=C1)CN2C=CC3=C2C=C(C=C3)C(=O)NO + CS(=O)(=O)N1CCN(Cc2cc3nc(-c4cccc5[nH]ncc45)nc(N4CCOCC4)c3s2)CC1 [Pictilisib] (partner 1 µM)
Procedure, shortened: as §1

Cell Line	relative viability ([1]; first compound 0.253 µM)	relative viability ([1]; first compound 0.8 µM)	relative viability ([1]; first compound 2.53 µM)	relative viability ([1]; first compound 8 µM)	relative viability (Veliparib + Alpelisib; first compound 0.02 µM)	relative viability (Veliparib + Alpelisib; first compound 0.06325 µM)	relative viability (Veliparib + Alpelisib; first compound 0.2 µM)	relative viability (Veliparib + Alpelisib; first compound 0.6325 µM)	relative viability (Veliparib + Alpelisib; first compound 2 µM)	relative viability (Veliparib + Lapatinib; first compound 0.02 µM)	relative viability (Veliparib + Lapatinib; first compound 0.06325 µM)	relative viability (Veliparib + Lapatinib; first compound 0.2 µM)	relative viability (Veliparib + Lapatinib; first compound 0.6325 µM)	relative viability (Veliparib + Lapatinib; first compound 2 µM)	relative viability ([2]; first compound 0.08 µM)	relative viability ([2]; first compound 0.253 µM)	relative viability ([2]; first compound 0.8 µM)	relative viability ([2]; first compound 2.53 µM)	relative viability ([2]; first compound 8 µM)	relative viability ([1]; first compound 0.08 µM)
EBC-1	0.226	0.211	0.232	0.208	0.882	0.77	0.849	0.654	0.858	0.205	0.21	0.208	0.201	0.244	0.351	0.514	0.401	0.424	0.338	–
NCI-H23	1.21	1.06	1.01	0.88	0.662	0.623	0.749	0.564	0.713	1.19	0.995	0.84	0.873	1.01	0.275	0.538	0.49	0.559	0.349	0.383
EMC-BAC-2	0.884	0.954	0.906	0.819	0.783	0.746	0.74	0.682	0.739	0.863	0.85	0.867	0.86	0.884	0.448	0.549	0.555	0.553	0.466	0.613
NCI-H2405	1.03	1.11	1.17	0.871	–	0.776	0.808	0.769	0.817	–	0.941	1.09	1.14	1.26	0.316	0.378	0.532	0.405	0.331	0.523
NCI-H661	0.471	0.471	0.443	0.402	0.361	0.581	0.653	0.701	0.699	0.413	0.483	0.56	0.447	0.533	–	0.358	0.35	0.375	0.318	–
NCI-H650	0.837	0.927	0.732	0.759	1.28	0.983	1.23	0.999	1.2	0.82	0.827	0.816	0.932	0.501	0.901	0.895	0.856	0.861	0.829	0.601
IA-LM	0.662	0.952	0.966	0.541	0.796	0.764	0.684	0.503	0.968	0.85	0.561	0.771	0.846	1.04	0.296	0.388	0.373	0.371	0.23	0.551
HCC-15	0.875	0.843	0.842	0.73	0.842	0.905	0.863	0.839	0.902	0.706	0.893	0.779	0.849	0.891	0.522	0.743	0.866	0.833	0.741	0.458
